How the values were obtained:
[1] = tested on: NK-1; conditions: 1 μg intrathecal 30 minutes before and 6 hours after CFA; 24 hours
Procedure: The data are represented as mean+SEM.
To explore whether ERK activation is involved in NK-1 upregulation, the MEK inhibitor U0126 was delivered intrathecally before the induction of inflammation via an osmotic pump (0.5 μg/ul/hr for 2 days). In particular, an Alzet osmotic pump (three days pump, 1 μl/hr) was filled with the MEK-inhibitor U0126 (0.5 μg/μl) in 50% DMSO, and the catheter of the pump implanted intrathecally at least three hours before CFA injection. DMSO (50%) was used as vehicle control.

[2] = tested on: CFA-induced inflammatory pain in rats
Text: For these studies, animals were habituated to the testing environment daily for two days before baseline testing. Except for the heat test, all the animals were placed on an elevated wire grid. For mechanical allodynia, the plantar surface of the hindpaw was stimulated with a series of von Frey hairs. The threshold was taken as the lowest force that evoked a brisk withdrawal response. For heat hyperalgesia, the plantar surface of a hindpaw was exposed to a beam of radiant heat through a transparent Perspex surface (Hargreaves et al., Pain 32:77-88, 1988). The withdrawal latency was recorded, with a maximum 15 seconds as cutoff. The withdrawal latency was averaged over three trials.
To examine the functional consequences of ERK activation and its downstream effects on prodynorphin and NK-1 upregulation, we determined whether inhibition of ERK activation modified inflammatory pain hypersensitivity.
ERK activation by CFA may contribute to inflammatory pain hypersensitivity either by maintaining ongoing post-translational changes or by inducing transcription of genes such as NK1 and prodynorphin. In the former case, blocking ERK activation in established inflammation would be expected to reduce the pain hypersensitivity within tens of minutes due to dephosphorylation of ERK substrates. If the contribution of ERK activation were through transcription, inhibiting ERK activation would be expected to have no immediate effect, but have a delayed effect. To distinguish between these two possible mechanisms, U0126 was intrathecally injected (1 μg) into rats with established inflammation (24 hours after CFA injection) and tested pain hypersensitivity 30 minutes, 6 hours, and 24 hours after the injection of U0126.

[3] = tested on: prodynorphin mRNA; conditions: 2×1 μg intrathecal; 24 hours after CFA
Text: To investigate changes in the expression of prodynorphin in response to inflammation, an RNase protection assay, in situ hybridization, and immunohistochemistry were used. […] Differences between groups were compared using student the t-test or ANOVA, followed by Fisher's PLSD. For non-parametric data, the Mann-Whittney U test was applied.
For the in situ hybridization analysis, animals were rapidly sacrificed in a CO2 chamber, and L4-L5 spinal cord segments were removed and cut on a cryostat at a thickness of 20 μm. […] An antinsense RNA probe, and the corresponding sense control probe, were labeled by in vitro transcription using linearized DNA templates for prodynorphin and dig labeling mixture for two hours at 37° C. […] Tissue Sections were air dried for two hours, fixed in 4% paraformaldehyde for 15 minutes, and acetylated in acetic anhydride (0.25%) for 10 minutes. Sections were pre-hybridized for two hours at room temperature, then incubated in hybridization buffer overnight at 60° C. […] Eight non-adjacent sections from the L4-L5 lumbar spinal cord were randomly selected, and the numbers of mRNA-positive neuronal profiles in the superficial laminae and/or deep laminae of the dorsal horn in each section were counted (under a 20× object field) by an observer blind to the treatment. […]

[4] = tested on: p38 and ERK; assay: MAP kinase phosphorylation in primary DRG neuron cultures; format: cell-based, rat; conditions: 10 ng/ml; 30 minutes
Procedure: To investigate the intracellular signaling pathway that leads to the increase in Cox-2 mRNA in the DRG neurons following treatment with IL-1β, the activation of the NFκ-B transcription factor and members of the MAP kinase family in primary DRG neurons was studied. […] Phosphorylated p38 and ERK were visualized by standard Western blot analysis and immunohistochemistry 30 minutes after administration of 10 ng/ml IL-1β to the culture medium (FIG. 12).
After CFA-induced inflammation, NGF is produced in the inflamed paw tissue and is retrogradely transported to the cell body of DRG neurons. NGF is critical for gene expression in DRG neurons and plays a major role in inflammatory pain (Lindsay et al., Nature 337: 362-364, 1989; and Woolf et al., Neuroscience 62:327-331, 1994). […] To determine whether NGF is required for the inflammation-induced activation of p38 and upregulation of VR1, NGF antiserum (i.p., 5 μl/g body weight, 84 mg/ml) was injected to neutralize endogenous NGF. […] Intrathecal injection of NGF (2 μg in 10 μl, twice a day for three days, Boeringer) increased both p-p38 levels and VR1 levels in DRG neurons. […] To test whether NGF acts via p38 to upregulate VR1, the p38 inhibitor SB203580 (1 μg) was co-administrated with NGF (twice a day for three days).

[5] = tested on: Cox-2 mRNA; assay: Cox-2 mRNA induction by IL-1β in primary DRG neuron cultures; format: cell-based, rat; conditions: 1 or 10 ng/ml
Procedure: (§1) To determine whether IL-1β induces central Cox-2, rats were subjected to intravenous or intrathecal administration of this cytokine, and Cox-2 mRNA levels in the lumbar spinal cord were assessed five hours later. […] IL-1β also induces Cox-2 expression in dorsal root ganglion neurons (“DRG”), which are primary sensory neurons, both in vivo after intrathecal IL-1β administration and in vitro in primary neuronal cultures. […] For this analysis, Cox-2 mRNA levels were monitored using an RNase protection assay, and protein expression was visualized by immunohistochemistry, as described herein (FIG. 10).
To measure the contribution of p38, ERK, and NFκ-B to IL-1β-mediated induction of Cox-2 mRNA and protein levels, specific inhibitors for each of these factors were used. p38 and ERK inhibitors each decreased the induction by IL-1β of Cox-2 mRNA in the primary DRG neuron cultures by 30% (FIG. 10).

[6] = tested on: Cox-2 mRNA; assay: Cox-2 mRNA in spinal cord and DRG after IL-1β administration in vivo; design: species or system rat; conditions: for upregulation of Cox-2 mRNA in the spinal cord: five hours later
Procedure: as §1

[7] = tested on: PGE2; assay: Central PGE2 levels after intrathecal IL-1β; format: in vivo, rat; conditions: intrathecal 5 ng
Procedure: To visualize the induction of Cox-2 protein in dorsal horns after peripheral inflammation, immunohistochemistry was performed on transverse spinal cord sections (20 μm) using a Cox-2 antibody (Santa Cruz) and a neuronal marker, the NeuN antibody (Chemicon), as described previously (Amay et al., Mol. Cell Neurosci. 15:331-342, 2000). In situ hybridization was performed using a digoxygenin-labeled riboprobe to visualize the induction of Cox-2 mRNA (Mannion et al., Proc. Natl. Acad. Sci. U. S. A. 96:9385, 1999). Low basal levels of Cox-2 mRNA and protein were present in dorsal horn neurons with a substantial upregulation six and 12 hours post-inflammation (FIGS. 2A-2D and 3). To determine whether this induction of Cox-2 was correlated with an increase in PGE2 levels, a 100-200 μl sample of cerebrospinal fluid was withdrawn from the cisterna magna of anaesthetized rats using a 27 G needle, and PGE2 levels were analyzed using a PGE2 enzyme-immunoassay according to the manufacturer's protocol (Amersham Pharmacia Biotech). […]
To determine whether IL-1β induces central Cox-2, rats were subjected to intravenous or intrathecal administration of this cytokine, and Cox-2 mRNA levels in the lumbar spinal cord were assessed five hours later. […]

[8] = tested on: Cox-2 mRNA; assay: Cox-2 mRNA in isolated spinal cord slice in vitro; format: cell-based, rat; conditions: 10 ng/ml; after three hours
Procedure: Two mechanisms may contribute to central Cox-2 induction in response to peripheral inflammation: 1) sensory inflow from nerve fibers innervating the inflamed hindpaw or 2) circulating pro-inflammatory cytokines. To determine whether primary sensory neuron activity increases central Cox-2, an isolated adult rat spinal cord slice preparation with an attached dorsal root was analyzed (FIG. 5A). To prepare this spinal cord slice, the lumbar spinal cord from an adult rat under urethane anesthesia was removed and immersed in cold Kreb's solution. A 700-μm-thick transverse slice with attached L4 dorsal root (15-20 mm) was prepared and perfused with Kreb's solution saturated with 95% O2 and 5% CO2 at 36-37° C. (Baba et al., J Neurosci 19:859, 1999). The L4 dorsal root was electrically stimulated for 30 minutes using a suction electrode at 20 μA (0.05 ms, 50 Hz) for Aβ-fibers, 100 μA (0.05 ms, 50 Hz) for […] 1000 μA (0.5 ms, 50 Hz) for C-fibers. The slices were perfused with Kreb's solution for two hours before electrical stimulation, and for three hours after stimulation.

[9] = non-inflamed animals, 1 μg intrathecal, 30 minutes after administration

Row | Molecule | CFA-induced NK-1 increase in the dorsal horn (Western blot) [1] | heat hyperalgesia and mechanical allodynia ([2]; 1 μg intrathecal 24 hours after CFA, tested at 30 minutes) | mechanical allodynia ([2]; 1 μg intrathecal 24 hours after CFA, tested at 6 hours) | heat hyperalgesia ([2]; 1 μg intrathecal 24 hours after CFA, tested at 24 hours) | heat withdrawal latency [2, 9] | mechanical withdrawal threshold [2, 9] | number of prodynorphin mRNA labeled neurons in the deep laminae [3] | phosphorylation of p38 and ERK in DRG cell cultures [4] | Cox-2 mRNA and protein levels in cultured DRG neurons [5] | upregulation of Cox-2 mRNA in the spinal cord ([6]; intrathecal 5 ng) [fold] | upregulation of Cox-2 mRNA in the spinal cord ([6]; intrathecal 50 ng) [fold] | Cox-2 mRNA levels in rat lumbar DRG neurons ([6]; intrathecal 1 and 10 ng, four hours after treatment) | upregulation of Cox-2 mRNA in the spinal cord ([6]; intravenous 1 μg) | upregulation of central PGE2 levels [7] [fold] | central PGE2 levels ([7]; p<0.005, n=6) [pg/mL] | Cox-2 mRNA expression in the spinal cord in vitro [8]
1 | N#CC(=C(/N)Sc1ccccc1N)/C(C#N)=C(\N)Sc1ccccc1N [U0126] | inhibited | Neither heat hyperalgesia nor mechanical allodynia was significantly affected | decreased | decreased | 113 % of vehicle control | 108 % of the vehicle control | without affecting | – | – | – | – | – | – | – | – | –
2 | IL-1β: cytokine administered intravenously, intrathecally or to cultures | – | – | – | – | – | – | – | lead to phosphorylation of p38 and ERK | increased significantly | 20 | 30 | substantially upregulated | four | 50 | 1204 ± 360 | increased
